ChEMBL document CHEMBL3400057, “Discovery of DS-5272 as a promising candidate: A potent and orally active p53-MDM2 interaction inhibitor” (Bioorg Med Chem, 2015)
≈ marks a conversion by molar mass, not a printed value. Calls of active or inactive are those of the source. The rule behind the calls is not given here.

Assays:
[1] = tested on: SJSA-1; experiment: Antiproliferative activity against human SJSA1 cells expressing wildtype p53 after 3 days by luminescent cell viability assay; format: functional; settings: SJSA-1, 72 h
[2] = Metabolic stability in mouse hepatic microsome assessed as compound remaining measured at 1 uM after 30 mins by LC-MS/MS analysis; format: ADME; settings: liver microsomes, read-out: Stability
[3] = Antiproliferative activity against human DLD1 cells expressing mutant p53 after 3 days by luminescent cell viability assay; format: cell-based, DLD-1
[4] = Solubility in phosphate buffer at 10 mM at pH 6.8 by HPLC analysis; format: physicochemical
[5] = tested on: SJSA-1; experiment: Antitumor activity against human SJSA1 cells xenografted in BALB/c SLc-nu/nu mouse assessed as tumor growth inhibition at 25 mg/kg, po compound administered from day 17 to 20 (qdx4) measured on day 25 (reference value: 0%); format: functional; settings: read-out: TGI
[6] = tested on: SJSA-1; experiment: Antitumor activity against human SJSA1 cells xenografted in BALB/c SLc-nu/nu mouse assessed as tumor growth inhibition at 100 mg/kg, po compound administered from day 17 to 20 (qdx4) measured on day 25 (reference value: 0%); format: functional; settings: read-out: TGI
[7] = Plasma concentration in mouse at 50 mg/kg, po after 24 hrs; format: ADME, organism-based; parameters: dose 50 mg/kg, route oral
[8] = Plasma concentration in mouse at 50 mg/kg, po after 19 hrs; format: ADME, organism-based; parameters: dose 50 mg/kg, route oral
[9] = Cmax in mouse at 25 mg/kg, po; format: ADME, organism-based; parameters: dose 25 mg/kg, route oral; settings: in vivo
[10] = Plasma concentration in mouse at 25 mg/kg, po after 3 hrs; format: ADME, organism-based; parameters: dose 25 mg/kg, route oral
[11] = Plasma concentration in mouse at 100 mg/kg, po after 6 hrs; format: ADME, organism-based; parameters: dose 100 mg/kg, route oral
[12] = Cmax in mouse at 100 mg/kg, po; format: ADME, organism-based; parameters: dose 100 mg/kg, route oral; settings: in vivo
[13] = Plasma concentration in mouse at 100 mg/kg, po after 19 hrs; format: ADME, organism-based; parameters: dose 100 mg/kg, route oral
[14] = tested on: SJSA-1; experiment: Antitumor activity against human SJSA1 cells xenografted in BALB/c SLc-nu/nu mouse assessed as increase in p53 accumulation in tumor at 25 to 100 mg/kg, po single dose by Western blot analysis; format: functional, organism-based
[15] = Plasma concentration in mouse at 100 mg/kg, po after 3 hrs; format: ADME, organism-based; parameters: dose 100 mg/kg, route oral
[16] = AUC in mouse plasma at 25 mg/kg, po; format: ADME, organism-based; parameters: dose 25 mg/kg, route oral
[17] = tested on: SJSA-1; experiment: Antitumor activity against human SJSA1 cells xenografted in BALB/c SLc-nu/nu mouse assessed as tumor growth inhibition at 12.5 mg/kg, po compound administered from day 17 to 20 (qdx4) measured on day 25 (reference value: 0%); format: functional; settings: read-out: TGI
[18] = Plasma concentration in mouse at 50 mg/kg, po after 6 hrs; format: ADME, organism-based; parameters: dose 50 mg/kg, route oral
[19] = AUC in mouse plasma at 100 mg/kg, po; format: ADME, organism-based; parameters: dose 100 mg/kg, route oral
[20] = tested on: SJSA-1; experiment: Antitumor activity against human SJSA1 cells xenografted in BALB/c SLc-nu/nu mouse assessed as tumor growth inhibition at 50 mg/kg, po compound administered from day 17 to 20 (qdx4) measured on day 25 (reference value: 0%); format: functional; settings: read-out: TGI
[21] = Cmax in mouse at 50 mg/kg, po; format: ADME, organism-based; parameters: dose 50 mg/kg, route oral; settings: in vivo
[22] = Plasma concentration in mouse at 50 mg/kg, po after 3 hrs; format: ADME, organism-based; parameters: dose 50 mg/kg, route oral
[23] = tested on: Mus musculus; experiment: Toxicity in human SJSA1 cells xenografted in BALB/c SLc-nu/nu mouse assessed as body weight loss at 12.5 mg/kg, po compound administered from day 17 to 20 (qdx4) measured on day 25 (reference value: <0%); format: organism-based, SJSA-1; parameters: dose 12.5 mg/kg, route oral; settings: in vivo
[24] = tested on: Mus musculus; experiment: Toxicity in human SJSA1 cells xenografted in BALB/c SLc-nu/nu mouse assessed as body weight loss at 100 mg/kg, po compound administered from day 17 to 20 (qdx4) measured on day 25 (reference value: <0%); format: organism-based, SJSA-1; parameters: dose 100 mg/kg, route oral; settings: in vivo
[25] = tested on: SJSA-1; experiment: Antitumor activity against human SJSA1 cells xenografted in BALB/c SLc-nu/nu mouse assessed as increase in Mdm2 accumulation in tumor at 12.5 mg/kg, po single dose by Western blot analysis; format: functional, organism-based; parameters: dose 12.5 mg/kg
[26] = Plasma concentration in mouse at 25 mg/kg, po after 6 hrs; format: ADME, organism-based; parameters: dose 25 mg/kg, route oral
[27] = tested on: Mus musculus; experiment: Toxicity in human SJSA1 cells xenografted in BALB/c SLc-nu/nu mouse assessed as body weight loss at 50 mg/kg, po compound administered from day 17 to 20 (qdx4) measured on day 25 (reference value: <0%); format: organism-based, SJSA-1; parameters: dose 50 mg/kg, route oral; settings: in vivo
[28] = Plasma concentration in mouse at 100 mg/kg, po after 24 hrs; format: ADME, organism-based; parameters: dose 100 mg/kg, route oral
[29] = tested on: SJSA-1; experiment: Induction of apoptosis in human SJSA1 cells xenografted in BALB/c SLc-nu/nu mouse assessed as PARP cleavage in tumor at 12.5 mg/kg, po single dose by Western blot analysis; format: functional, organism-based; parameters: dose 12.5 mg/kg
[30] = AUC in mouse plasma at 50 mg/kg, po; format: ADME, organism-based; parameters: dose 50 mg/kg, route oral
[31] = tested on: SJSA-1; experiment: Antitumor activity against human SJSA1 cells xenografted in BALB/c SLc-nu/nu mouse assessed as increase in p21 accumulation in tumor at 12.5 mg/kg, po single dose by Western blot analysis; format: functional, organism-based; parameters: dose 12.5 mg/kg
[32] = tested on: Mus musculus; experiment: Toxicity in human SJSA1 cells xenografted in BALB/c SLc-nu/nu mouse assessed as body weight loss at 25 mg/kg, po compound administered from day 17 to 20 (qdx4) measured on day 25 (reference value: <0%); format: organism-based, SJSA-1; parameters: dose 25 mg/kg, route oral; settings: in vivo

## CC(C)C1=C(C(=O)N2C[C@H](F)C[C@H]2C(=O)N2CC3(CC3)NC[C@@H]2C)SC2=N[C@@](C)(c3ccc(Cl)nc3)[C@@H](c3ccc(Cl)c(F)c3)N21
[1]
  GI50: 26 nM
[2]
  remaining at 0.5 h, 1 µM: 79%
[3]
  GI50 at 72 h: > 50000 nM
[4]
  solubility: 640 µg/mL (≈ 928 µM)

## CC(C)C1=C(C(=O)N2[C@H](C)CC[C@H]2C(=O)N2CC3(CC3)NC[C@@H]2C)SC2=N[C@@](C)(c3ccc(Cl)nc3)[C@@H](c3ccc(Cl)c(F)c3)N21
[1]
  GI50: 240 nM
[2]
  remaining at 0.5 h, 1 µM: 100%
[3]
  GI50 at 72 h: > 50000 nM
[4]
  solubility: 720 µg/mL (≈ 1050 µM)

## CC(C)C1=C(C(=O)N2[C@H](C)CC[C@H]2C(=O)N2CCN(C)C3(CC3)C2)SC2=N[C@@](C)(c3ccc(Cl)cc3)[C@@H](c3ccc(Cl)cc3)N21
[1]
  GI50: 1080 nM
[2]
  remaining at 0.5 h, 1 µM: 41%
[3]
  GI50 at 72 h: 17200 nM
[4]
  solubility: 38 µg/mL (≈ 57 µM)

## CC[C@@H]1CNC2(CC2)CN1C(=O)[C@@H]1C[C@@H](F)CN1C(=O)C1=C(C(C)C)N2C(=N[C@@](C)(c3ccc(Cl)nc3)[C@H]2c2ccc(Cl)c(F)c2)S1
[5]
  inhibition in vivo at 25 mg/kg: 72.3%
[6]
  inhibition in vivo at 100 mg/kg: 96.6%
[7]
  concentration at 24 h: 20 ng/mL
[1]
  GI50: 170 nM
[8]
  concentration at 19 h: 10 ng/mL
[9]
  Cmax: 6000 ng/mL
[10]
  concentration at 3 h: 6000 ng/mL
[11]
  concentration at 6 h: 22300 ng/mL
[12]
  Cmax: 26100 ng/mL
[13]
  concentration at 19 h: 160 ng/mL
[14]
  Activity: Active
[15]
  concentration at 3 h: 26100 ng/mL
[16]
  AUC: 47.1 µg·h/mL
[2]
  remaining at 0.5 h, 1 µM: 84%
[17]
  inhibition in vivo at 12.5 mg/kg: 29.7%
[18]
  concentration at 6 h: 12400 ng/mL
[19]
  AUC: 259 µg·h/mL
[20]
  inhibition in vivo at 50 mg/kg: 93.7%
[21]
  Cmax: 15900 ng/mL
[22]
  concentration at 3 h: 15900 ng/mL
[23]
  Activity: 0.2%
[3]
  GI50 at 72 h: > 50000 nM
[24]
  Activity: 1.2%
[25]
  Activity: Active
[26]
  concentration at 6 h: 3600 ng/mL
[27]
  Activity: 0.7%
[28]
  concentration at 24 h: 10 ng/mL
[29]
  Activity: Active
[30]
  AUC: 147 µg·h/mL
[31]
  Activity: Active
[32]
  Activity: 0.2%
[4]
  solubility: 420 µg/mL (≈ 597 µM)

## CC(C)C1=C(C(=O)N2[C@H](C)CC[C@H]2C(=O)N2CCNC3(CC3)C2)SC2=N[C@@](C)(c3ccc(Cl)cc3)[C@@H](c3ccc(Cl)c(F)c3)N21
[1]
  GI50: 350 nM
[2]
  remaining at 0.5 h, 1 µM: 85%
[3]
  GI50 at 72 h: 16700 nM
[4]
  solubility: 51 µg/mL (≈ 76 µM)

## CC(C)C1=C(C(=O)N2[C@H](C)CC[C@H]2C(=O)N2CCN(C)[C@H](C)C2)SC2=N[C@@](C)(c3ccc(Cl)cc3)[C@@H](c3ccc(Cl)cc3)N21
[1]
  GI50: 850 nM
[2]
  remaining at 0.5 h, 1 µM: 74%

## CC(C)C1=C(C(=O)N2[C@H](C)CC[C@H]2C(=O)N2CCNC3(CC3)C2)SC2=N[C@@](C)(c3ccc(Cl)nc3)[C@@H](c3ccc(Cl)c(F)c3)N21
[1]
  GI50: 660 nM
[2]
  remaining at 0.5 h, 1 µM: 80%
[3]
  GI50 at 72 h: > 50000 nM
[4]
  solubility: 330 µg/mL (≈ 491 µM)

## CC(C)C1=C(C(=O)N2[C@H](C)CC[C@H]2C(=O)N2CCNC3(CC3)C2)SC2=N[C@@](C)(c3ccc(Cl)cc3)[C@@H](c3ccc(Cl)cc3)N21
[1]
  GI50: 650 nM
[2]
  remaining at 0.5 h, 1 µM: 87%
[3]
  GI50 at 72 h: 16200 nM
[4]
  solubility: 56 µg/mL (≈ 85.8 µM)
